One data set has as its target HIS-KRAS(G12C) (Homo sapiens (Human), UniProt P01116, G12C). As to the kind of experiment: SOS1 catalyzed nucleotide exchange assay (TR-FRET). The format is biochemical. The note with it: GDP-loaded HIS-KRAS(G12C), 1 hour pre-incubation, TR-FRET. The method, then:
TR-FRET signals were then read on Tecan Spark multimode microplate reader. […] TR-FRET ratios for each individual wells were calculated by equation: TR-FRET ratio=(Signal F515/Signal F486)*10000. Then the data were analyzed using a 4-parameter logistic model to calculate IC50 values.
(In TR-FRET formats the signal depends on donor and acceptor labels being close together.)

The nature of data set [1]: Mouse pharmacokinetic study. In kind it is in vivo, Balb/c mouse. The note with it: plasma, Balb/c mouse (female). How it is done:
The purpose of this study was to evaluate the pharmacokinetic properties of compounds in Balb/c mouse (♀) following single dose administration. The day before administration, mice were fasted overnight and free access to water. Six mice were needed for each compound and the six mice were divided into two groups (n=3/group), group A and group B. Mice in group A were treated with a single 3 mg/kg dose of compound (iv). Mice in group B were treated with a single 10 mg/kg dose of compound (po). For each mouse in group A, blood samples were collected at pre-dose, and at the time point of 0.083, 0.25, 0.5, 1, 2, 4, 6, 8 and 24 h post-dose. For each mouse in group B, blood samples were collected at pre-dose, and at the time point of 0.25, 0.5, 1, 2, 3, 4, 6, 8 and 24 h post-dose. Blood samples were placed on ice until centrifugation to obtain plasma samples. The plasma samples were stored at −80° C. until analysis. The concentration of compound in plasma samples was determined using a LC-MS/MS method.

Data set [2] in a line: Dog pharmacokinetic study. The format is in vivo, beagle dog. The settings on record: plasma, beagle dog; for clearance / Vd: 1 mg/kg, iv; for Vd: read-out: VSS; for AUC(0-t) / Cmax / bioavailability: 3 mg/kg, po; for AUC(0-t): read-out: AUC0-24h; for Cmax: read-out: Cmax; for bioavailability: read-out: Oral BA (F %). The method, then: (§1) The purpose of this study was to evaluate the pharmacokinetic properties of compounds in beagle dog following single dose administration. The day before administration, dogs were fasted overnight and free access to water. Four beagle dogs were needed for each compound and the four dogs were divided into two groups, group A and group B (one male(♂) and one female (♀) in each group). Dogs in group A were treated with a single 1 mg/kg dose of compound (iv). Dogs in group B were treated with a single 3 mg/kg dose of compound (po). For dogs in group A, blood samples were collected at pre-dose, and at the time point of 0.083, 0.25, 0.5, 1, 2, 4, 6, 8 and 24 h post-dose. For dogs in group B, blood samples were collected at pre-dose, and at the time point of 0.25, 0.5, 1, 2, 4, 6, 8 and 24 h post-dose. Blood samples were placed on ice until centrifugation to obtain plasma samples. The plasma samples were stored at −80° C. until analysis. The concentration of compound in plasma samples was determined using a LC-MS/MS method.

A short description of data set [3]: Cynomolgus monkey pharmacokinetic study. In kind it is in vivo. The note with it: plasma, cynomolgus monkey; for clearance / Vd: 1 mg/kg, iv; for Vd: read-out: VSS; for AUC(0-t) / Cmax / bioavailability: 3 mg/kg, po; for AUC(0-t): read-out: AUC0-24h; for Cmax: read-out: Cmax; for bioavailability: read-out: Oral BA (F %). The method, then: as §1, with “cynomolgus monkey” for “beagle dog”, “monkeys” for “dogs”, “monkeys are” for “beagle dogs were”, “male (♂)” for “male(♂)”, “Monkeys” for “Dogs”

In data set [4] the test system is NCI-H358 cells expressing KRAS G12C mutant protein. As to the kind of experiment: Phospho-ERK1/2(THR202/TYR204) HTRF assay. In kind it is cell-based. The note with it: 2 hours incubation, read-out: p-ERK IC50. How it is done: The NCI-H358 cells in culture medium were seeded in 96-well plates at a concentration of 40,000 cells/well and then put in a 37° C./5% CO2 cell incubator to incubate overnight. […] After 2 hours incubation in a 37° C./5% CO2 cell incubator, the assay medium in 96-well plates was removed, then 50 μL of 1× blocking reagent-supplemented lysis buffer (Cisbio) was added and the plates were incubated at 25° C. for 45 min with shaking. 10 μL of cell lysates from the 96-well plates were transferred to a 384-well plate (Greiner) containing 2.5 μL/well HTRF® pre-mixed antibodies (Cisbio 64AERPEH). Incubate 4 hours at 25° C. and then read HTRF signals on Tecan Spark multimode microplate reader. The data were analyzed using a 4-parameter logistic model to calculate IC50 values.

Like-named read-outs stand apart in the source and are kept apart here.

Sequence of HIS-KRAS(G12C) (P01116 other isoform, or with tags, fused parts or gaps G12C): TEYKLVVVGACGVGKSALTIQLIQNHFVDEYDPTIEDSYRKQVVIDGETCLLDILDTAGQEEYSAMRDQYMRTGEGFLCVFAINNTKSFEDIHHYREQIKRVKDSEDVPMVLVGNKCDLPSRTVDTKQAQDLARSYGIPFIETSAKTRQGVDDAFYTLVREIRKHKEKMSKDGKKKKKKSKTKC

As a reminder, the IC50 is the concentration needed to halve the response being measured. In turn, `C=CC(=O)N1CCN(c2nc(=O)n(-c3c(C)ccnc3C(C)C)c3nc(-c4c(F)c(F)c(F)c(N)c4Cl)c(F)cc23)[C@@H](C)C1` (single isomer, unassigned) [Compound 1-2] yielded an IC50 at HIS-KRAS(G12C) of 0.121 µM.
As a reminder, the clearance is a measure of how efficiently the substance is removed, as volume per time. In general, Cmax refers to the highest concentration seen after dosing. For the compound `C=CC(=O)N1CCN(c2nc(=O)n(-c3c(C)ccnc3C(C)C)c3nc(-c4c(O)cccc4F)c(F)cc23)[C@@H](C)C1` [Amg-510, reference compound], the clearance in data set [1] (3 mg/kg, iv) is 2.43 L/h/kg; in data set [2] (female) it was 1.21 L/h/kg; in data set [2] (male), 1.27 L/h/kg; in data set [3] (female) it was 5.06 L/h/kg; in data set [3] (male), 1.53 L/h/kg. For the same compound, the Vd was found to be 1.64 L/kg in data set [1] (3 mg/kg, iv, read-out: Vss); 0.543 L/kg in data set [2] (female); 0.535 L/kg in data set [2] (male); 2.01 L/kg in data set [3] (female); 0.775 L/kg in data set [3] (male). Also, the AUC(0-t) was 1.81 µg·h/mL in data set [1] (10 mg/kg, po, read-out: AUC0-24 h); 0.404 µg·h/mL in data set [2] (female); 1.99 µg·h/mL in data set [2] (male); 0.241 µg·h/mL in data set [3] (female); 0.214 µg·h/mL in data set [3] (male). The Cmax turned out to be 1.6 µg/mL in data set [1] (10 mg/kg, po, read-out: Cmax); 0.45 µg/mL in data set [2] (female); 1.84 µg/mL in data set [2] (male); 0.1 µg/mL in data set [3] (female); 0.133 µg/mL in data set [3] (male). Besides, the bioavailability in data set [1] (10 mg/kg, po, read-out: Oral BA (F %)) worked out at 43.9%; in data set [2] (female) it was 16.4%; in data set [2] (male) it was 84.4%; in data set [3] (female) it was 41.3%; in data set [3] (male), 11%.
As for `C=CC(=O)N1CCN(c2nc(=O)n(-c3c(C)ccnc3C(C)C)c3nc(-c4c(N)c(F)c(F)c(F)c4F)c(F)cc23)C[C@H]1C` [Compound 4, 4-((R)-4-acryloyl-3-methylpiperazin-1-yl)-7-(2-amino-3,4,5,6-tetrafluorophenyl)-6-fluoro-1-(2-isopropyl-4-methylpyridin-3-yl)pyrido[2,3-d]pyrimidin-2(1H)-one], the IC50 at HIS-KRAS(G12C) amounted to 0.0103 µM.
For `C=CC(=O)N1CCN(c2nc(=O)n(-c3c(C)ccnc3C(C)C)c3nc(-c4c(N)c(F)c(F)c(F)c4F)c(F)cc23)CC1` (single isomer, unassigned) [Compound 3-1, 4-(4-acryloylpiperazin-1-yl)-7-(2-amino-3,4,5,6-tetrafluorophenyl)-6-fluoro-1-(2-isopropyl-4-methylpyridin-3-yl)pyrido[2,3-d]pyrimidin-2(1H)-one], the IC50 against HIS-KRAS(G12C) was determined as 0.00314 µM; in data set [4] (Homo sapiens, NCI-H358, 2 h) it was 0.0254 µM.
On the same counts, the results for `C=CC(=O)N1[C@H](C)CN(c2nc(=O)n(-c3c(C)ccnc3C(C)C)c3nc(-c4c(F)c(F)c(F)c(N)c4Cl)c(F)cc23)C[C@@H]1C` (single isomer, unassigned) [Compound 7-1] are 0.00654 µM and 0.0367 µM.
Take `C=CC(=O)N1[C@H](C)CN(c2nc(=O)n(-c3c(C)ccnc3C(C)C)c3nc(-c4c(F)c(F)c(F)c(N)c4Cl)c(F)cc23)C[C@@H]1C` [Compound 7, 4-((3S,5R)-4-acryloyl-3,5-dimethylpiperazin-1-yl)-7-(3-amino-2-chloro-4,5,6-trifluorophenyl)-6-fluoro-1-(2-isopropyl-4-methylpyridin-3-yl)pyrido[2,3-d]pyrimidin-2(1H)-one]: half-maximal inhibition at HIS-KRAS(G12C) (IC50) was put at 0.0175 µM.
In the case of `C=CC(=O)N1[C@H](C)CN(c2nc(=O)n(-c3c(C)ccnc3C(C)C)c3nc(-c4c(F)c(F)c(F)c(N)c4Cl)c(F)cc23)C[C@@H]1C` (single isomer, unassigned) [Compound 7-2], half-maximal inhibition against HIS-KRAS(G12C) (IC50) required 0.307 µM.
In the case of `C=CC(=O)N1CCN(c2nc(=O)n(-c3c(C)ccnc3C(C)C)c3nc(-c4c(F)c(F)c(F)c(N)c4Cl)c(F)cc23)[C@@H](C)C1` [Compound 1, 4-((S)-4-acryloyl-2-methylpiperazin-1-yl)-7-(3-amino-2-chloro-4,5,6-trifluorophenyl)-6-fluoro-1-(2-isopropyl-4-methylpyridin-3-yl)pyrido[2,3-d]pyrimidin-2(1H)-one], the IC50 against HIS-KRAS(G12C) was determined as 0.00725 µM; in data set [4] (Homo sapiens, NCI-H358, 2 h), 0.0701 µM.
Turning to `C=CC(=O)N1CCN(c2nc(=O)n(-c3c(C)ccnc3C(C)C)c3nc(-c4c(N)c(F)c(F)c(F)c4F)c(F)cc23)CC1` (single isomer, unassigned) [Compound 3-2, 4-(4-acryloylpiperazin-1-yl)-7-(2-amino-3,4,5,6-tetrafluorophenyl)-6-fluoro-1-(2-isopropyl-4-methylpyridin-3-yl)pyrido[2,3-d]pyrimidin-2(1H)-one], the IC50 against HIS-KRAS(G12C) was found to be 0.234 µM.
As for `C=CC(=O)N1CCN(c2nc(=O)n(-c3c(C)ccnc3C(C)C)c3nc(-c4c(N)c(F)c(F)c(F)c4F)c(F)cc23)[C@@H](C)C1` (atropisomer, axis not shown; (P)) [Compound 2-2, (P)-4-((S)-4-acryloyl-2-methylpiperazin-1-yl)-7-(2-amino-3,4,5,6-tetrafluorophenyl)-6-fluoro-1-(2-isopropyl-4-methylpyridin-3-yl)pyrido[2,3-d]pyrimidin-2(1H)-one], the results for the IC50 (against HIS-KRAS(G12C); in data set [4]) were 0.0618 µM and 0.681 µM, respectively.
`C=CC(=O)N1CCN(c2nc(=O)n(-c3c(C)ccnc3C(C)C)c3nc(-c4c(F)c(F)c(F)c(N)c4Cl)c(F)cc23)C[C@H]1C` [Compound 6, 4-((R)-4-acryloyl-3-methylpiperazin-1-yl)-7-(3-amino-2-chloro-4,5,6-trifluorophenyl)-6-fluoro-1-(2-isopropyl-4-methylpyridin-3-yl)pyrido[2,3-d]pyrimidin-2(1H)-one]: on HIS-KRAS(G12C), 0.0401 µM corresponded to half-maximal inhibition (IC50).
On the same count and under the same terms, for `C=CC(=O)N1CCN(c2nc(=O)n(-c3c(C)ccnc3C(C)C)c3nc(-c4c(N)c(F)c(F)c(F)c4F)c(F)cc23)C[C@H]1C` (single isomer, unassigned) [Compound 4-2] the value was 0.278 µM; for `C=CC(=O)N1CCN(c2nc(=O)n(-c3c(C)ccnc3C(C)C)c3nc(-c4c(N)c(F)c(F)c(F)c4F)c(F)cc23)CC1` [Compound 3, 4-(4-acryloylpiperazin-1-yl)-7-(2-amino-3,4,5,6-tetrafluorophenyl)-6-fluoro-1-(2-isopropyl-4-methylpyridin-3-yl)pyrido[2,3-d]pyrimidin-2(1H)-one], 0.00551 µM.
